Experimental data: ChEMBL document CHEMBL1151975, “Isolation, structure, and antibacterial activities of lucensimycins D-G, discovered from Streptomyces lucensis MA7349 using an antisense strategy” (2009)
In brackets after ≈: the same amount, converted by molar mass. Activity calls are given as the source filed them. The rule behind the calls is not given here.

Legend:
Staphylococcus aureus [1] = assay: Antimicrobial activity against Staphylococcus aureus Smith at 250 ug/ml; assay type: functional, organism-based
Staphylococcus aureus [2] = assay: Antimicrobial activity against Staphylococcus aureus EP167 at 0.5 mg/ml by two-plate assay; assay type: functional, organism-based
Streptococcus pneumoniae = assay: Antimicrobial activity against Streptococcus pneumoniae CL 2883; assay type: functional
Escherichia coli = assay: Antimicrobial activity against Escherichia coli at 250 ug/ml; assay type: functional, organism-based
Enterococcus faecalis = assay: Antimicrobial activity against Enterococcus faecalis at 250 ug/ml; assay type: functional, organism-based
Bacillus subtilis = assay: Antimicrobial activity against Bacillus subtilis at 250 ug/ml; assay type: functional, organism-based
Candida albicans = assay: Antimicrobial activity against Candida albicans at 250 ug/ml; assay type: functional, organism-based
Haemophilus influenzae = assay: Antimicrobial activity against Haemophilus influenzae at 250 ug/ml; assay type: functional, organism-based
Staphylococcus aureus [3] = assay: Antimicrobial activity against Staphylococcus aureus bearing antisense rpsD gene by two-plate assay; assay type: functional
Streptomyces noursei = assay: Antimicrobial activity against Streptomyces albulus MJ202-72F3; assay type: functional
Staphylococcus aureus [4] = assay: Antimicrobial activity against Staphylococcus aureus Smith; assay type: functional

`C=C1OC(=O)[C@@]2(C1=O)C(=O)[C@@]1(C)[C@@H](C=C[C@H]3[C@H](O)[C@@H](C)[C@H](OC(C)=O)C[C@@H]31)C[C@H]2/C=C/C=C/C=C/C(=O)O` [LUCENSIMYCIN A] was tested, and the Activity (Staphylococcus aureus [1]) was “inactive”, the Activity (Staphylococcus aureus [2]) was “Active” and the Activity (Streptococcus pneumoniae) was “inactive”. The Activity (Escherichia coli) was “inactive”, the Activity (Enterococcus faecalis) was “inactive” and the Activity (Bacillus subtilis) was “inactive”. The Activity (Candida albicans) was “inactive”, the Activity (Haemophilus influenzae) was “inactive” and the “inhibition zone (IZ)” value (Staphylococcus aureus [3]) was 12 mm.

`CCC(O)C(C)/C=C/C=C/C(O)CC1C=CC2CC(C)CC(C)C2C1(C)C(=O)C1=C(O)C(OC)NC1=O` (stereo not drawn) [DELAMINOMYCIN B] was tested, and the MIC (Streptomyces noursei) was 25 µg/mL (≈ 48.5 µM).

For `CC(=O)N[C@H](CSC[C@H]1OC(=O)[C@@]2(C1=O)C(=O)[C@@]1(C)[C@@H](C=C[C@H]3[C@H](O)[C@@H](C)[C@H](OC(C)=O)C[C@@H]31)C[C@H]2/C=C/C=C/C=C/C(=O)O)C(=O)O` [LUCENSIMYCIN E], the MIC (Streptococcus pneumoniae) was 8 µg/mL (≈ 11.6 µM), the MIC (Staphylococcus aureus [4]) was 32 µg/mL (≈ 46.5 µM) and the “inhibition zone (IZ)” value (Staphylococcus aureus [3]) was 12 mm.

For `CCC(O)C(C)/C=C/C=C/C(O)CC1C=CC2CC(C)CC(C)C2C1(C)C(=O)C1=C(O)C(O)NC1=O` (stereo not drawn) [DELAMINOMYCIN A], the MIC (Streptomyces noursei) was 25 µg/mL (≈ 49.8 µM).

In the case of `CC(=O)N[C@H](CSC[C@@H]1OC(=O)[C@@]2(C1=O)C(=O)[C@@]1(C)[C@@H](C=C[C@H]3[C@H](O)[C@@H](C)[C@H](OC(C)=O)C[C@@H]31)C[C@H]2/C=C/C=C/C=C/C(=O)O)C(=O)N[C@H]1[C@@H](O[C@@H]2[C@@H](O)[C@H](O)[C@@H](O)[C@H](O)[C@@H]2O)O[C@@H](CO)[C@@H](O)[C@@H]1O`, the Activity (Staphylococcus aureus [1]) is reported as “inactive”, the Activity (Staphylococcus aureus [2]) is reported as “Active” and the Activity (Streptococcus pneumoniae) is reported as “inactive”. The Activity (Escherichia coli) was “inactive”, the Activity (Enterococcus faecalis) was “inactive” and the Activity (Bacillus subtilis) was “inactive”. The Activity (Candida albicans) was “inactive” and the Activity (Haemophilus influenzae) was “inactive”.

In the case of `CC(=O)N[C@H](CSC[C@@H]1OC(=O)[C@@]2(C1=O)C(=O)[C@@]1(C)[C@@H](C=C[C@H]3[C@H](O)[C@@H](C)[C@H](OC(C)=O)C[C@@H]31)C[C@H]2/C=C/C=C/C=C/C(=O)O)C(=O)O` [LUCENSIMYCIN D], the Activity (Staphylococcus aureus [1]) is reported as “inactive”, the MIC (Streptococcus pneumoniae) is reported as 250 µg/mL (≈ 363 µM) and the “inhibition zone (IZ)” value (Staphylococcus aureus [3]) is reported as 12 mm.

`CC(=O)N[C@H](CSC[C@H]1OC(=O)[C@@]2(C1=O)C(=O)[C@@]1(C)[C@@H](C=C[C@H]3[C@H](O)[C@@H](C)[C@H](OC(C)=O)C[C@@H]31)C[C@H]2/C=C/C=C/C=C/C(=O)O)C(=O)N[C@H]1[C@@H](O[C@@H]2[C@@H](O)[C@H](O)[C@@H](O)[C@H](O)[C@@H]2O)O[C@@H](CO)[C@@H](O)[C@@H]1O` was tested, and the Activity (Staphylococcus aureus [1]) was “inactive”, the Activity (Staphylococcus aureus [2]) was “Active” and the Activity (Streptococcus pneumoniae) was “inactive”. For the same compound, the Activity (Escherichia coli) was “inactive”, the Activity (Enterococcus faecalis) was “inactive” and the Activity (Bacillus subtilis) was “inactive”. For the same compound, the Activity (Candida albicans) was “inactive” and the Activity (Haemophilus influenzae) was “inactive”.

With `CC(=O)O[C@@H]1C[C@H]2[C@@H](C=C[C@H]3C[C@@H](/C=C/C=C/C=C/C(=O)O)[C@@]4(C(=O)O[C@@H](CO)C4=O)C(=O)[C@@]32C)[C@H](O)[C@H]1C` the Activity (Staphylococcus aureus [1]) was “inactive”, the Activity (Streptococcus pneumoniae) was “inactive” and the Activity (Escherichia coli) was “inactive”. The Activity (Enterococcus faecalis) was “inactive”, the Activity (Bacillus subtilis) was “inactive” and the Activity (Candida albicans) was “inactive”. For the same compound, the Activity (Haemophilus influenzae) was “inactive”.

`CCC(O)C(C)/C=C/C=C/C(O)CC1C=CC2CC(C)CC(C)C2C1(C)C(=O)C1=C(O)CNC1=O` (stereo not drawn) [DELAMINOMYCIN C] showed an MIC (Streptomyces noursei) of 25 µg/mL (≈ 51.5 µM).

For `C=C(OC(=O)[C@@H]1C(=O)[C@@]2(C)[C@@H](C=C[C@H]3[C@H](O)[C@@H](C)[C@H](OC(C)=O)C[C@@H]32)C[C@H]1/C=C/C=C/C=C/C(=O)O)C(=O)O`, the Activity (Staphylococcus aureus [1]) was “inactive”, the Activity (Streptococcus pneumoniae) was “inactive” and the Activity (Escherichia coli) was “inactive”. For the same compound, the Activity (Enterococcus faecalis) was “inactive”, the Activity (Bacillus subtilis) was “inactive” and the Activity (Candida albicans) was “inactive”. The Activity (Haemophilus influenzae) was “inactive”.
